Results as given in the supplement of paper PMC10883282.

How the values were obtained:
Assay in all cases: relative viability vs DMSO control (72 h) (fraction); higher = more viable cells
[1] = tested on: HS729
Method in brief: (§1)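 Relative viability was measured with ATPLite and expressed as percent growth, averaged across up to triplicate wells. Sarcoma cell lines had been seeded in 384-well plates to reach 80–90% confluence, dosed after 24 h, and incubated 72 h at 37 °C, 5% CO2. All data were rescaled on a scale where 1 is full and 0 is none.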

[2] = tested on: SK-LMS-1
Method in brief: as §1

[3] = tested on: MES-SA
Method in brief: as §1

[4] = tested on: G401
Method in brief: as §1

[5] = tested on: SW872
Method in brief: as §1

[6] = tested on: A204
Method in brief: as §1

[7] = tested on: SYO-1
Method in brief: as §1

[8] = tested on: KHOS-NP
Method in brief: as §1

[9] = tested on: SW684
Method in brief: as §1

[10] = tested on: VA-ES-BJ
Method in brief: as §1

[11] = tested on: SW1353
Method in brief: as §1

[12] = tested on: HT1080
Method in brief: as §1

CCN(c1cc(-c2ccc(CN3CCOCC3)cc2)cc(C(=O)NCc2c(C)cc(C)[nH]c2=O)c1C)C1CCOCC1 [Tazemetostat]
Conditions | relative viability
[1], 0.00017 µM | 1.04
[1], 0.00051 µM | 1.05
[1], 0.00152 µM | 1.03
[1], 0.00457 µM | 1.05
[1], 0.01372 µM | 1.04
[1], 0.04115 µM | 1.01
[1], 0.1235 µM | 0.98
[1], 0.3704 µM | 1
[1], 1.111 µM | 0.938
[1], 3.333 µM | 0.932
[1], 10 µM | 0.892
[2], 0.00017 µM | 0.996
[2], 0.00051 µM | 1.02
[2], 0.00152 µM | 0.981
[2], 0.00457 µM | 1
[2], 0.01372 µM | 0.997
[2], 0.04115 µM | 1.03
[2], 0.1235 µM | 0.969
[2], 0.3704 µM | 0.9897
[2], 1.111 µM | 0.976
[2], 3.333 µM | 0.969
[2], 10 µM | 0.938
[3], 0.00017 µM | 1
[3], 0.00051 µM | 0.988
[3], 0.00152 µM | 0.9899
[3], 0.00457 µM | 0.986
[3], 0.01372 µM | 0.977
[3], 0.04115 µM | 0.998
[3], 0.1235 µM | 1
[3], 0.3704 µM | 0.942
[3], 1.111 µM | 0.933
[3], 3.333 µM | 0.926
[3], 10 µM | 0.874
[4], 0.00017 µM | 1.03
[4], 0.00051 µM | 1.01
[4], 0.00152 µM | 1
[4], 0.00457 µM | 1.049
[4], 0.01372 µM | 1.05
[4], 0.04115 µM | 1.04
[4], 0.1235 µM | 1
[4], 0.3704 µM | 0.999
[4], 1.111 µM | 1.01
[4], 3.333 µM | 1.02
[4], 10 µM | 1.01
[5], 0.00017 µM | 1.04
[5], 0.00051 µM | 1.07
[5], 0.00152 µM | 1.07
[5], 0.00457 µM | 1.072
[5], 0.01372 µM | 1.066
[5], 0.04115 µM | 1.08
[5], 0.1235 µM | 1.05
[5], 0.3704 µM | 1.06
[5], 1.111 µM | 1.02
[5], 3.333 µM | 1.03
[5], 10 µM | 1.02
[6], 0.00017 µM | 1.04
[6], 0.00051 µM | 1.09
[6], 0.00152 µM | 1.08
[6], 0.00457 µM | 1.07
[6], 0.01372 µM | 1.03
[6], 0.04115 µM | 1.069
[6], 0.1235 µM | 1.08
[6], 0.3704 µM | 1.08
[6], 1.111 µM | 1.08
[6], 3.333 µM | 1.09
[6], 10 µM | 1.05
[7], 0.00017 µM | 1.03
[7], 0.00051 µM | 1
[7], 0.00152 µM | 1.02
[7], 0.00457 µM | 1
[7], 0.01372 µM | 0.994
[7], 0.04115 µM | 1.006
[7], 0.1235 µM | 1
[7], 0.3704 µM | 0.95
[7], 1.111 µM | 0.953
[7], 3.333 µM | 0.915
[7], 10 µM | 0.873
[8], 0.00017 µM | 1.05
[8], 0.00051 µM | 1.06
[8], 0.00152 µM | 1.06
[8], 0.00457 µM | 1.07
[8], 0.01372 µM | 1.04
[8], 0.04115 µM | 1.04
[8], 0.1235 µM | 1.015
[8], 0.3704 µM | 0.997
[8], 1.111 µM | 0.98
[8], 3.333 µM | 0.998
[8], 10 µM | 0.934
[9], 0.00017 µM | 1.05
[9], 0.00051 µM | 1.092
[9], 0.00152 µM | 1.11
[9], 0.00457 µM | 1.1
[9], 0.01372 µM | 1.12
[9], 0.04115 µM | 1.12
[9], 0.1235 µM | 1.12
[9], 0.3704 µM | 1.11
[9], 1.111 µM | 1.12
[9], 3.333 µM | 1.14
[9], 10 µM | 1.1
[10], 0.00017 µM | 1.038
[10], 0.00051 µM | 1.046
[10], 0.00152 µM | 1.05
[10], 0.00457 µM | 1.05
[10], 0.01372 µM | 1.034
[10], 0.04115 µM | 1.06
[10], 0.1235 µM | 1.06
[10], 0.3704 µM | 1.07
[10], 1.111 µM | 1.06
[10], 3.333 µM | 1.08
[10], 10 µM | 1.07
[11], 0.00017 µM | 1.08
[11], 0.00051 µM | 1.04
[11], 0.00152 µM | 1.065
[11], 0.00457 µM | 1.08
[11], 0.01372 µM | 1.05
[11], 0.04115 µM | 1.09
[11], 0.1235 µM | 1.05
[11], 0.3704 µM | 1.04
[11], 1.111 µM | 1.02
[11], 3.333 µM | 1.02
[11], 10 µM | 0.991
[12], 0.00017 µM | 1.09
[12], 0.00051 µM | 1.1
[12], 0.00152 µM | 1.08
[12], 0.00457 µM | 1.09
[12], 0.01372 µM | 1.085
[12], 0.04115 µM | 1.07
[12], 0.1235 µM | 1.09
[12], 0.3704 µM | 1.1
[12], 1.111 µM | 1.071
[12], 3.333 µM | 1.08
[12], 10 µM | 1.01
